Measured values published in patent publication US12042561B2, “Hydrophobic molecule-induced branched polymer aggregates and their use” (ANP Technologies, Inc., priority 2011, dated 2024).

Legend:
[1] = test system: MCF-7 human breast cancer cells; assay: Cell survivability (MTS), MCF-7; conditions: varying concentrations based on amount of drug, FIG. 17
From the text: (§1) Metabolism in viable cells produces “reducing equivalents,” such as, NADH or NADPH. Such reducing compounds pass electrons to an intermediate electron transfer reagent that can reduce the tetrazolium product, MTS (Promega), into an aqueous, soluble formazan product, which is colored. At death, cells rapidly lose the ability to reduce tetrazolium products. The production of the colored formazan product, therefore, is proportional to the number of viable cells in culture.
(§2) The CellTiter 96® Aqueous products (Promega) are MTS assays for determining the number of viable cells in culture. […] A single reagent added directly to the assay wells at a recommended ratio of 20 μl reagent to 100 μl of culture medium was used. Cells were incubated 1-4 hours at 37° C. and then absorbance was measured at 490 nm.
(§3) Varying concentrations of CPT-11 and the camptothecin branched polymer aggregates described above were prepared.
(§4) Two cancer cell lines were maintained in suitable medium under recognized culture conditions. MCF-7 is a human breast cancer cell line and H460 is a human epithelial lung cancer cell line. Those cell lines were exposed to varying concentrations of CPT-11 and concentrations of the camptothecin aggregates based on the amount of drug. Cell survivability was assessed as described above.

[2] = test system: H460 human epithelial lung cancer cells; assay: Cell survivability (MTS), H460; conditions: varying concentrations based on amount of drug, FIG. 18
From the text: as §1, §2, §3, §4

CCc1c2c(nc3ccc(OC(=O)N4CCC(N5CCCCC5)CC4)cc13)-c1cc3c(c(=O)n1C2)COC(=O)[C@]3(O)CC [CPT-11, Irinotecan]
cytotoxicity [1]: increased with increasing drug concentration
cytotoxicity [2]: dose response curve of cytotoxicity
